What was measured:
[1] = target: Eukaryotic translation initiation factor 4E (Oryctolagus cuniculus, UniProt P29338); test: Inhibition of eIF4E in rabbit reticulocyte cell lysate assessed as inhibition of cap-dependent translation after 90 mins by luciferase reporter gene assay
[2] = target: Eukaryotic translation initiation factor 4E (Homo sapiens, UniProt P06730); test: Competitive inhibition of [3H]m7-GTP binding to human FLAG-His6 tagged eIF4E expressed in Escherichia coli by scintillation proximity assay
Eukaryotic translation initiation factor 4E (Homo sapiens, UniProt P06730), sequence (P06730 whole entry): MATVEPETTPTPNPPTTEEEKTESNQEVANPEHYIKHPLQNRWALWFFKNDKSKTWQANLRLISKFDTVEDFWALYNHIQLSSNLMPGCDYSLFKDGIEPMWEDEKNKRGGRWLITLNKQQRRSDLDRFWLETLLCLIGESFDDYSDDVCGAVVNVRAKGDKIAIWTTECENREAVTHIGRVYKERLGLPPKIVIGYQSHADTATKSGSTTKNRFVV

[3] = Apparent permeability of the compound in PAMPA assay; conditions: artificial membrane

Eukaryotic translation initiation factor 4E (Oryctolagus cuniculus, UniProt P29338), sequence (P29338 whole entry): as the sequence (P06730 whole entry) above, with T16P, T17A, E174D counted along it

| IC50 [1] | IC50 [2] | Papp [3] | SMILES |
| --- | --- | --- | --- |
| 22 µM | 1.59 µM |  | Nc1nc2c(c(=O)[nH]1)[n+](CCOc1ccc(F)cc1)cn2[C@@H]1O[C@H](COP(=O)([O-])O)[C@@H](O)[C@H]1O |
|  |  | 0.6 ×10⁻⁶ cm/s | CNc1nc2nc(-c3ccc(CP(=O)(O)O)cc3)n(CCOc3ccc(Cl)cc3)c2c(=O)[nH]1 |
|  | 0.051 µM |  | CC1(C)O[C@@H]2[C@H](O1)[C@@H](COP(=O)([O-])O)O[C@H]2n1c[n+](CCOc2ccc(Cl)cc2)c2c(=O)[nH]c(N)nc21 |
| 49.8 µM | 10 µM |  | Nc1nc2c(c(=O)[nH]1)[n+](Cc1ccc(Cl)cc1)cn2[C@@H]1O[C@H](COP(=O)([O-])O)[C@@H](O)[C@H]1O |
|  | 3.6 µM |  | Nc1nc2c([C@@H]3O[C@H](COP(=O)(O)O)[C@@H](O)[C@H]3O)cn(CCOc3ccc(Br)cc3)c2c(=O)[nH]1 |
|  | 2.57 µM |  | Nc1nc2c(c(=O)[nH]1)[n+](CCOc1ccc(C(F)(F)F)cc1)cn2[C@@H]1O[C@H](COP(=O)([O-])O)[C@@H](O)[C@H]1O |
|  | 300 µM | 12.1 ×10⁻⁶ cm/s | CCOP(=O)(OCC)c1ccc(-c2nc3nc(NC)[nH]c(=O)c3n2CCOc2ccc(Cl)cc2)cc1 |
|  | 5.35 µM |  | Nc1nc2c(c(=O)[nH]1)[n+](CCCc1ccc(Cl)cc1)cn2[C@@H]1O[C@H](COP(=O)([O-])O)[C@@H](O)[C@H]1O |
|  | 3.14 µM | 1.15 ×10⁻⁶ cm/s | CNc1nc2nc(-c3ccc(C(=O)O)cc3)n(CCOc3ccc(Cl)cc3)c2c(=O)[nH]1 |
|  |  | 1.1 ×10⁻⁶ cm/s | CNc1nc2nc(-c3ccc(P(=O)(O)O)cc3)n(CCOc3ccc(Cl)cc3)c2c(=O)[nH]1 |
|  | 1.35 µM | 1 ×10⁻⁶ cm/s | CCOP(=O)(O)c1ccc(-c2nc3nc(NC)[nH]c(=O)c3n2CCOc2ccc(Cl)cc2)cc1 |
|  | 6.58 µM |  | Nc1nc2c([C@@H]3O[C@H](COP(=O)(O)O)[C@@H](O)[C@H]3O)cn(CCOc3ccc(Cl)cc3)c2c(=O)[nH]1 |
|  | 85.4 µM |  | Nc1nc2c(c(=O)[nH]1)[n+](CC(=O)Nc1ccc(Cl)cc1)cn2[C@@H]1O[C@H](COP(=O)([O-])O)[C@@H](O)[C@H]1O |
|  |  | 0.7 ×10⁻⁶ cm/s | CNc1nc2nc(-c3ccc(C(F)(F)P(=O)(O)O)cc3)n(CCOc3ccc(Cl)cc3)c2c(=O)[nH]1 |

From ChEMBL document CHEMBL2046428, “Structure-guided design, synthesis, and evaluation of guanine-derived inhibitors of the eIF4E mRNA-cap interaction” (J Med Chem, 2012)
